{
  "source": "paper PMC2248282",
  "about": "(Chemmedchem, 2007)",
  "key": {"[1]": {"assay": "LC-MS stability in phosphate buffer saline at 37°C", "format": "physicochemical"}, "[2]": {"tested_on": "human embryonic kidney cells (HEK 293T)", "assay": "Cytotoxicity to mammalian cells", "format": "cell-based", "conditions": "read-out: IC50 HEK 293T"}, "T. b. brucei (Bs427)": {"tested_on": "T. b. brucei (Bs427)", "assay": "In vitro trypanocidal assay", "format": "cell-based", "conditions": "for IC50: Trypanosoma brucei, read-out: IC50 Bs427; for activity against T. b. brucei (in words): in vitro"}, "[3]": {"conditions": "phosphate buffered saline, pH 7.2"}},
  "data": [
    {"compound": "COC(=O)C(C)NP(=O)(OCC1OC(C)(C)OC1C(=O)NO)Oc1ccc([N+](=O)[O-])cc1", "note": "(stereo not drawn) [Compound 3c, 2-[(5-Hydroxycarbamoyl-2,2-dimethyl-[1,3]dioxolan-4-ylmethoxy)-(4-nitro-phenoxy)-phosphorylamino]-propionic acid methyl ester]", "values": [
      {"measurement": "half-life at 1 mg/mL", "setting": "[1]; [3]", "value": 51, "unit": "min"},
      {"measurement": "IC50", "setting": "[2]", "value": "> 200", "unit": "µM"},
      {"measurement": "IC50", "setting": "T. b. brucei (Bs427)", "value": 43.8, "unit": "µM"},
      {"measurement": "activity against T. b. brucei (in words)", "setting": "T. b. brucei (Bs427)", "value": "moderate activities"}
    ]},
    {"compound": "COc1ccc(CONC(=O)C2OC(C)(C)OC2COP(=O)(OCCSC(=O)C(C)(C)C)OCCSC(=O)C(C)(C)C)c(OC)c1", "note": "(stereo not drawn) [Compound 24, 2,2-dimethyl-thiopropionic acid S-(2-{[5-(2,4-dimethoxy-benzyloxycarbamoyl)-2,2-dimethyl-[1,3]dioxolan-4-ylmethoxy]-[2-(2,2-dimethyl-propionylsulfanyl)-ethoxy]-phosphoryloxy}-ethyl) ester]", "values": [
      {"measurement": "IC50", "setting": "[2]", "value": "> 200", "unit": "µM"},
      {"measurement": "IC50", "setting": "T. b. brucei (Bs427)", "value": 25, "unit": "µM"},
      {"measurement": "activity against T. b. brucei (in words)", "setting": "T. b. brucei (Bs427)", "value": "improved activity"}
    ]},
    {"compound": "COc1ccc(CONC(=O)C2OC(C)(C)OC2COP(=O)(OCCSC(=O)C(C)(C)C)Oc2ccccc2)c(OC)c1", "note": "(stereo not drawn) [Compound 26b, 2,2-Dimethyl-thiopropionic acid S-(2-{[5-(2,4-dimethoxy-benzyloxycarbamoyl)-2,2-dimethyl-[1,3]dioxolan-4-ylmethoxy]-phenoxy-phosphoryloxy}-ethyl) ester]", "values": [
      {"measurement": "IC50", "setting": "[2]", "value": "> 200", "unit": "µM"},
      {"measurement": "IC50", "setting": "T. b. brucei (Bs427)", "value": "> 100", "unit": "µM"}
    ]},
    {"compound": "CC1(C)OC(COP(=O)(OCCSC(=O)C(C)(C)C)OCCSC(=O)C(C)(C)C)C(C(=O)NO)O1", "note": "(stereo not drawn) [Compound 3a, 2,2-Dimethyl-thiopropionic acid S-{2-[[2-(2,2-dimethyl-propionylsulfanyl)-ethoxy]-(5-hydroxycarbamoyl-2,2-dimethyl-[1,3]dioxolan-4-ylmethoxy)-phosphoryloxy]-ethyl} ester]", "values": [
      {"measurement": "IC50", "setting": "[2]", "value": "> 200", "unit": "µM"},
      {"measurement": "IC50", "setting": "T. b. brucei (Bs427)", "value": 4.23, "unit": "µM"},
      {"measurement": "activity against T. b. brucei (in words)", "setting": "T. b. brucei (Bs427)", "value": "highest activity"}
    ]},
    {"compound": "COc1ccc(CONC(=O)C2OC(C)(C)OC2COP(=O)(OCCSC(=O)C(C)(C)C)Oc2ccccc2)cc1", "note": "(stereo not drawn) [Compound 26a, 2,2-Dimethyl-thiopropionic acid S-(2-{[5-(4-methoxy-benzyloxycarbamoyl)-2,2-dimethyl-[1,3]dioxolan-4-ylmethoxy]-phenoxy-phosphoryloxy}-ethyl) ester]", "values": [
      {"measurement": "IC50", "setting": "[2]", "value": "> 200", "unit": "µM"},
      {"measurement": "IC50", "setting": "T. b. brucei (Bs427)", "value": "> 100", "unit": "µM"}
    ]},
    {"compound": "CC1(C)OC(COP(=O)(OCOC(=O)C(C)(C)C)OCOC(=O)C(C)(C)C)C(C(=O)NO)O1", "note": "(stereo not drawn) [Compound 3e, (5-(hydroxycarbamoyl)-2,2-dimethyl-1,3-dioxolan-4-yl)methyl bis((pivaloyloxy)methyl) phosphate]", "values": [
      {"measurement": "half-life at 1 mg/mL", "setting": "[1]; [3]", "value": 31.8, "unit": "min"},
      {"measurement": "IC50", "setting": "[2]", "value": "> 200", "unit": "µM"},
      {"measurement": "IC50", "setting": "T. b. brucei (Bs427)", "value": 20.2, "unit": "µM"},
      {"measurement": "activity against T. b. brucei (in words)", "setting": "T. b. brucei (Bs427)", "value": "moderate activities"}
    ]},
    {"compound": "COC(=O)C(C)NP(=O)(OCC1OC(C)(C)OC1C(=O)NO)Oc1ccccc1", "note": "(stereo not drawn) [Compound 3b, 2-[(5-Hydroxycarbamoyl-2,2-dimethyl-[1,3]dioxolan-4-ylmethoxy)-phenoxy-phosphorylamino]-propionic acid methyl ester]", "values": [
      {"measurement": "half-life", "setting": "[1]; [3]", "value": 300, "unit": "min"},
      {"measurement": "IC50", "setting": "[2]", "value": "> 200", "unit": "µM"},
      {"measurement": "IC50", "setting": "T. b. brucei (Bs427)", "value": 6.95, "unit": "µM"},
      {"measurement": "activity against T. b. brucei (in words)", "setting": "T. b. brucei (Bs427)", "value": "highest activity"}
    ]},
    {"compound": "2,2-Dimethyl-thiopropionic acid S-(2-{[5-(2,4-dimethoxy-benzyloxycarbamoyl)-2,2-dimethyl-[1,3]dioxolan-4-ylmethoxy]-phenoxy-phosphoryloxy}-ethyl) ester [Compound 3d]", "values": [
      {"measurement": "half-life", "setting": "[1]; PBS (pH 7.2) at 37°C, LC-MS, disappearance of molecular ion", "value": 128, "unit": "min"},
      {"measurement": "activity against T. b. brucei (in words)", "setting": "T. b. brucei (Bs427)", "value": "highest activity"}
    ]}
  ]
}
